Data reported in patent publication US4868203A, “Bacterial substance and pharmaceutical composition thereof” (Kabushikikaisha Ueno Seiyaku Oyo Kenkyujo, priority 1986, dated 1989).
Converted amounts (≈) assume the structure as drawn.

What was measured:
[1] = tested on: Pasteurella piscicida; test: microbe, parasite or virus in culture; assay type: cell-based; details: Photobacterium damselae
[2] = Storage life of kamaboko, rot-proof property (Test Example 4); details: 0.2%, pH 6.58, 30° C.
Description: Fish paste was prepared by adding NaCl (2.5%), chemical seasoning (0.8%), starch (5%) and ice water (10%) based on frozen surimi of walleye pollack (4 kg) and cutting by a silent cutter for 10 minutes. Predetermined amount of bacterial substance UFC-N11 based on the resulting fish paste (2 kg) was added and completely mixed in a small mixer for 5 minutes. About 100 g fish paste were enclosed with polyvinylidene chloride film (spread width:45 mm), boiled at 90° C. for 30 minutes, quenched, left overnight and then tested for rot-proof property.
The test was conducted as follows. As the complete package products, 10 pieces/group of kamaboko processed by casing method samples and, as the simplified package products, 10 pieces/group prepared by peeling off the casing under sterilized condition, cutting into 2 round slices (thickness: 10 mm) by a sterilized knife and placing in a sterilized plastic Petri dish. were placed in a thermostatic chamber at 30° C. and evaluated by macroscopically observation. The evaluation uses five-level scale shown below. The period until the average evaluation value of 1 is attained is defined as the storage life.

[3] = tested on: Xanthomonas campestris PV citri

| Structure (SMILES) | MIC ([1]; strain AT-1) | MIC ([1]; strain AT-17) | MIC ([1]; strain KGP86041) | MIC ([1]; strain MEP35) | MIC ([1]; strain MEP151) | MIC ([1]; strain MS86115) | MIC ([1]; strain MS86169) | MIC ([1]; strain SP6275) | MIC ([1]; strain SP6291) | MIC ([1]; strain WP96) | Storage life, Complete package [2] | Storage life, simplified package [2] | Prevention ([3]; Streptomycin, concentration printed as 0 ppm, 14 days) | Damage ([3]; in vivo) |
| --- | --- | --- | --- | --- | --- | --- | --- | --- | --- | --- | --- | --- | --- | --- |
| CC1(C)S[C@@H]2[C@H](NC(=O)[C@H](N)c3ccccc3)C(=O)N2[C@H]1C(=O)O [Ampicillin] | > 10 µg/mL | > 10 µg/mL | 0.039 µg/mL (≈ 0.112 µM) | 0.039 µg/mL (≈ 0.112 µM) | > 10 µg/mL | 0.039 µg/mL (≈ 0.112 µM) | > 10 µg/mL | 0.039 µg/mL (≈ 0.112 µM) | > 10 µg/mL | 0.078 µg/mL (≈ 0.223 µM) |  |  |  |  |
| O=C(O)c1ccc(/C=C/c2ccc([N+](=O)[O-])o2)cc1 [Nifurstyrenic acid] | 1.25 µg/mL (≈ 4.82 µM) | 0.31 µg/mL (≈ 1.2 µM) | 2.5 µg/mL (≈ 9.64 µM) | 2.5 µg/mL (≈ 9.64 µM) | 0.31 µg/mL (≈ 1.2 µM) | 0.31 µg/mL (≈ 1.2 µM) | 2.5 µg/mL (≈ 9.64 µM) | 0.63 µg/mL (≈ 2.43 µM) | 0.16 µg/mL (≈ 0.617 µM) | 0.31 µg/mL (≈ 1.2 µM) |  |  |  |  |
| CCn1cc(C(=O)O)c(=O)c2cc3c(cc21)OCO3 [Oxolinic acid] | 1.25 µg/mL (≈ 4.79 µM) | 1.25 µg/mL (≈ 4.79 µM) | 0.078 µg/mL (≈ 0.299 µM) | 1.25 µg/mL (≈ 4.79 µM) | 1.25 µg/mL (≈ 4.79 µM) | 1.25 µg/mL (≈ 4.79 µM) | 0.078 µg/mL (≈ 0.299 µM) | 1.25 µg/mL (≈ 4.79 µM) | 0.039 µg/mL (≈ 0.149 µM) | 0.039 µg/mL (≈ 0.149 µM) |  |  |  |  |
| C/C=C/C=C/C(=O)O [Sorbic acid, reference compound] |  |  |  |  |  |  |  |  |  |  | 12.0 days | 7.0 days |  |  |
| [H]/N=C(/N)N[C@H]1[C@H](O)[C@@H](O)[C@H](O[C@@H]2O[C@@H](C)[C@](O)(C=O)[C@H]2O[C@@H]2O[C@@H](CO)[C@H](O)[C@@H](O)[C@@H]2NC)[C@@H](N/C(N)=N\[H])[C@@H]1O [Streptomycin, reference compound] |  |  |  |  |  |  |  |  |  |  |  |  | 30.3% | nil |
